The text below walks through data of patent US6645976B1 (Eli Lilly and Company, priority 1994, dated 2003).

Structures can show the parent of a compound that is named as a salt.

The target in series [1] is T1, recombinant human secreted phospholipase A2 (Homo sapiens, UniProt P14555).
T1 sequence (P14555 21-144): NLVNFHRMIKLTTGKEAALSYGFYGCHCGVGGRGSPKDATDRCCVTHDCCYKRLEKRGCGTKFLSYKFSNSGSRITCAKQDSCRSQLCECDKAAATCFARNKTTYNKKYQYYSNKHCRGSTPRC
As to the kind of experiment: sPLA2 Chromogenic Assay (Assay 1). Format: biochemical. Conditions: diheptanoyl thio-PC substrate, pH 7.5, 40° C. for 30 minutes, absorbance at 405 nanometers.
Description: The following chromogenic assay procedure was used to identify and evaluate inhibitors of recombinant human secreted phospholipase A2. The assay described herein has been adapted for high volume screening using 96 well microtiter plates.
A measured volume of racemic dipheptanoyl thio PC supplied in chloroform at a concentration of 100 mg/ml is taken to dryness and redissolved in 10 millimolar TRITON X-100™ nonionic detergent aqueous solution. Reaction Buffer is added to the solution, then DTNB to give the Reaction Mixture.
The reaction mixture thus obtained contains 1 mM diheptanoyl thio-PC substrate, 0.29 mm Triton X-100™ detergent, and 0.12 mm DTMB in a buffered aqueous solution at pH 7.5.
1. Add 0.2 ml reaction mixture to all wells;
2. Add 10 ul test compound (or solvent blank) to appropriate wells, mix 20 seconds;
3. Add 50 nanograms of sPLA2 (10 microliters) to appropriate wells;
4. Incubate plate at 40° C. for 30 minutes;
All compounds were tested in triplicate. […] Each sample was titrated in triplicate and result values were averaged for plotting and calculation of IC50 values.

In general, IC50 refers to the midpoint of a concentration-inhibition curve. A word on the melting point: it is the temperature, or range, at which the solid turns liquid. In turn, `CCOC(=O)COc1cccn2c(Cc3ccccc3)c(C)c(C(=O)C(N)=O)c12` [Compound 37g, (3-Benzyl-8-(carbethoxymethyloxy)-2-methylindolizin-1-yl)glyoxylamide] came in with a melting point of 193 to 195 °C. In series [1], the IC50 amounted to 23 nM. For `COC(=O)CNc1cccn2c(CC3CCCCC3)c(C)c(C(=O)C(N)=O)c12` [Compound 89b, 2-(8-methoxycarbonylmethylamino-3-cyclohexylmethyl-2-methyl-indolizin-1-yl)-glyoxylamide], the melting point fell in the range of 173 to 177 °C. With `CCOC(=O)COc1ccn2c(Cc3ccccc3-c3ccccc3)c(CC)c(C(=O)C(N)=O)c2c1` [Compound 68b, 2-(7-(Carboethoxymethyloxy)-2-ethyl-3-(o-phenylbenzyl)indolizin-1-yl)glyoxylamide], the melting point lay within 119 to 121 °C. `CCc1c(C(=O)C(N)=O)c2c(OCC(=O)OC)cccn2c1CC1CCCC1` [Compound 51c, 2-(8-(Carbomethoxymethyloxy)-3-cyclopentylmethyl-2-ethylindolizin-1-yl)glyoxylamide] came in with a melting point of 158 to 159 °C. The IC50 in series [1] came out at 430 nM.

Regarding `Cc1c(C(=O)C(N)=O)c2c(NCC(=O)O)cccn2c1CC1CCCCC1` [Compound 90b, 2-(8-Carboxymethylamino-3-cyclohexylmethyl-2-methyl-indolizin-1-yl)-glyoxylamide], the melting point is > 300 °C. Turning to `CCc1c(C(=O)C(N)=O)c2c(OCC(=O)O)cccn2c1Cc1sccc1-c1cccs1` [Compound 52l, 2-(8-(Carboxymethyloxy)-2-ethyl-3-((3-thiophen-2-yl)thiophen-2-ylmethyl)indolizin-1-yl)glyoxylamide], the melting point was in the range of 209 to 210 °C. In addition, the IC50 in series [1] came to 10 nM.

On to `NC(=O)C(=O)c1c(C2CC2)c(Cc2cccc3ccccc23)n2cccc(OCC(=O)O)c12` [Compound 58j, 2-(8-carboxymethoxyl-2-cyclopropyl-3-(1-naphthylmethyl)indlolin-1-yl)glyoxylamide], for which the melting point is 205 to 207 °C. Besides, in series [1], the IC50 is 23 nM. Compound `COC(=O)COc1cccn2c(Cc3ccccc3)c(C3CC3)c(C(=O)C(N)=O)c12` [Compound 51r, 2-(3-Benzyl-8-carbomethoxymethyloxy-2-cyclopropylindolizin-1-yl)-glyoxylamide] had a melting point of 186 to 188 °C. In the case of `COC(=O)COc1cccn2c(CC34CC5CC(CC(C5)C3)C4)c(C)c(C(=O)C(N)=O)c12` [Compound 51p, 2-(3-(Adamant-1-ylmethyl)-8-(carbomethoxymethyloxy)-2-methylindolizin-1-yl)glyoxylamide], the melting point lay in the range of 191 to 192 °C. The same measure, in the same setting: next, `NC(=O)C(=O)c1c(C2CC2)c(Cc2ccccc2-c2ccccc2)n2ccc(OCCCC(=O)O)cc12` [Compound 67b, 2-(7-(3-Carboxypropyloxy)-2-cyclopropyl-3-(o-phenylbenzyl)indolizin-1-yl)glyoxylamide]: 112 to 121 °C (dec.); `COC(=O)COc1cccn2c(Cc3ccccc3-c3ccccc3)c(C3CC3)c(C(=O)C(N)=O)c12` [Compound 39k, (8-(Carbmethoxymethyloxy)-2-cyclopropyl-3-(o-phenylbenzyl)indolizin-1-yl)glyoxylamide]: 178 to 179 °C.

For the compound `CCc1c(C(=O)C(N)=O)c2c(OCCC(=O)OC)cccn2c1Cc1ccccc1-c1ccccc1` [Compound 70c, 2-(3-(Biphenyl-2-yl-methyl)-8-(2-carbomethoxyethyloxy)-2-ethylindolizine-1-yl)glyoxylamide], the melting point lay within 159 to 162 °C. In series [1], the IC50 turned out to be 130 nM. Compound `CCCC(CCC)Cc1c(CC)c(C(=O)C(N)=O)c2c(OCC(=O)OC)cccn12` [Compound 51f, 2-(8-(Carbomethoxymethyloxy)-2-ethyl-3-(2-propylpentyl)indolizin-1-yl)glyoxylamide] registered a melting point of 114 to 115 °C. Also, the concentration for half-maximal inhibition (IC50) in series [1] is 590 nM. `CCOC(=O)COc1cccn2c(Cc3cccc(Cl)c3)c(CC)c(C(=O)C(N)=O)c12` [Compound 37h, (8-(Carbethoxymethyloxy)-3-(m-chlorobenzyl)-2-ethylindolizin-1-yl)glyoxylamide] showed a melting point of 172 to 175 °C. `CCc1c(C(=O)C(N)=O)c2c(OCC(=O)O)cccn2c1Cc1cccc(-c2ccccc2)c1` [Compound 58g, 2-(8-Carboxymethyloxy-2-ethyl-3-(m-phenylbenzyl)indlolin-1-yl)glyoxylamide]: the melting point lay within 241 to 244 °C. Besides, the IC50 in series [1] worked out at 9 nM. `CCc1c(C(=O)C(=O)N(C)C)c2c(OCC(=O)O)cccn2c1Cc1ccccc1-c1ccccc1` [Compound 40f, (8-(Carboxymethyloxy)-2-ethyl-3-(o-phenylbenzyl)indolizin-1-yl)glyoxyl-N,N-dimethylamide] showed a melting point of 208 to 209 °C. Also, the IC50 in series [1] was > 50000 nM.

The compound `CCc1c(C(=O)C(N)=O)c2c(OCC(=O)OC)cccn2c1CC1CCCCCC1` [Compound 51d, 2-(8-(Carbomethoxymethyloxy)-3-cycloheptylmethyl-2-ethylindolizin-1-yl)glyoxylamide] came in with a melting point of 147 to 148 °C. Also, the IC50 in series [1] stood at 550 nM. `CCCCc1ccc(Cc2c(CC)c(C(=O)C(N)=O)c3c(OC)cccn23)cc1` [Compound 49s, 2-(3-(p-n-Butylbenzyl)-2-ethyl-8-methoxyindolizin-1-yl)glyoxylamide] registered a melting point of 195 to 196 °C. Further, the IC50 in series [1] was 360 nM. The matching figures for `NC(=O)C(=O)c1c(C2CC2)c(CC2CCCCC2)n2cccc(OCC(=O)O)c12` [Compound 58k, 2-(8-carboxymethoxyl-3-cyclohexylmethyl-2-cyclopropylindolizin-1-yl)glyoxylamide]: 229 to 234 °C and 43 nM. As for `CCc1c(CC(N)=O)c2cc(OCCCC(=O)O)ccn2c1Cc1ccccc1-c1ccccc1` [Compound 71b, 2-(7-(3-Carboxypropyloxy)-2-ethyl-3-(o-phenylbenzyl)indolizin-1-yl)acetamide], the melting point is 105 to 120 °C (dec.). In the case of `CCc1c(C(=O)C(N)=O)c2c(OCC(=O)O)cccn2c1CCCc1ccccc1` [Compound 58i, 2-(8-Carboxymethyloxy-2-ethyl-3-(3-phenyl-2-propanyl)indlolin-1-yl)glyoxylamide], the melting point fell in the range of 215 to 217 °C. Also, the IC50 in series [1] came to 51 nM.

For the compound `Cc1c(C(=O)C(N)=O)c2c(OCc3ccccc3)cccn2c1Cc1ccccc1` [Compound 35g, (3-Benzyl-8-benzyloxy-2-methylindolizin-1-yl)glyoxylamide], the melting point fell in the range of 212 to 214 °C. Also, the IC50 in series [1] was found to be 47 nM.

Regarding `CCc1c(C(=O)C(N)=O)c2c(OCC(=O)OC)cccn2c1Cc1cccc(OC)c1` [Compound 51m, 2-(2-Ethyl-8-(carbomethoxymethyloxy)-3-(m-methoxybenzyl)indolizine-1-yl)glyoxylamide], the melting point was in the range of 155 to 157 °C. Further, the IC50 in series [1] was 310 nM. The matching figures for `NC(=O)C(=O)c1c(C2CCCC2)c(Cc2ccccc2-c2ccccc2)n2cccc(OCC(=O)O)c12` [Compound 58f, 2-(8-Carboxymethyloxy-2-cyclopentyl-3-(o-phenylbenzyl)indlolin-1-yl)glyoxylamide]: 147 to 148 °C and 280 nM. On to `CCc1c(CC(N)=O)c2c(OCC(=O)OC)cccn2c1Cc1ccccc1` [Compound 21v, Methyl (3-Benzyl-1-carbamoylmethyl-2-ethylindolizin-8-yloxy)acetate], for which the melting point was 159 to 163 °C.

In turn, `CCc1c(C(=O)C(N)=O)c2c(OCc3ccccc3)cccn2c1Cc1cccs1` [Compound 49k, 2-(8-Benzyloxy-2-ethyl-3-(thiophen-2-ylmethyl)indolizin-1-yl)glyoxylamide] returned a melting point of 191 to 192 °C. Moreover, in series [1], the IC50 is 790 nM.

Consider `CCc1c(C(=O)C(N)=O)c2c(OCC(=O)OC)cccn2c1Cc1ccccc1[N+](=O)[O-]` [Compound 51n, 2-(2-Ethyl-8-(carbomethoxymethyloxy)-3-(o-nitrobenzyl)indolizine-1-yl)glyoxylamide], for which the melting point is 156 to 157 °C. With `CCc1c(CC(N)=O)c2c(OCC(=O)O)cccn2c1-c1cccc2ccccc12` [Compound 22w, 2-(8-(Carboxymethyloxy)-2-ethyl-3-(1-naphthyl)indolizin-1-yl)acetamide], the melting point was 129 to 133 °C. Consider `CCc1c(C(=O)C(N)=O)c2cc(OCCCCCC(=O)O)ccn2c1Cc1ccccc1-c1ccccc1`, for which the melting point was 84 to 94 °C (dec.).

In the case of `CCc1c(C(=O)C(N)=O)c2c(OCC(=O)OC)cccn2c1Cc1cccc(C(F)(F)F)c1` [Compound 39i, (8-(Carbmethoxymethyloxy)-2-ethyl-3-(m-trifluoromethylbenzyl)indolizin-1-yl)glyoxylamide], the melting point lay in the range of 136 to 137 °C. Compound `CCc1c(C(=O)C(N)=O)c2c(OCC(=O)OC)cccn2c1-c1cccs1` [Compound 51k] displayed a melting point of 182 °C. For the compound `COC(=O)CNc1cccn2c(Cc3ccccc3)c(C)c(C(=O)C(N)=O)c12` [Compound 89a, 2-(3-Benzyl-8-methoxycarbonylmethylamino-2-methyl-indolizin-1-yl)-glyoxylamide], the melting point is 293 °C (dec.).

Turning to `CCCCCC1CCC(Cc2c(CC)c(C(=O)C(N)=O)c3c(OCC(=O)O)cccn23)CC1` (centres unmarked) (as salt: Na) [Compound 52o, 2-(8-(Carboxymethyloxy)-2-ethyl-3-(4-n-pentylcyclohexylmethyl)indolizin-1-yl)glyoxylamide], the melting point was 224 to 225 °C.

Turning to `CCc1c(C(=O)C(N)=O)c2c(OCC(=O)O)cccn2c1CC1CCCCCC1` [Compound 52d, 2-(8-Carboxymethyloxy-3-cycloheptylmethyl-2-ethylindolizin-1-yl)glyoxylamide], in series [1], the IC50 came out at 23 nM.
